From US6596878B2, “Methods and compositions for inhibiting cell proliferative disorders” (Yissum Research & Development Company of the Hebrew …, priority 1994, dated 2003)
pIC50: −log10 of the molar value.

How the values were obtained:
[1] = molecular target: T1, chimeric receptor containing the EGFR extracellular domain and the HER2 intracellular kinase domain (Homo sapiens, UniProt P04626); assay: EGFR-HER2 chimeric receptor whole cell kinase assay (E/HER2-3T3); format: cell-based; settings: Table VI, cellular kinase assay
T1 construct: P00533 (Epidermal growth factor receptor)
Description: (§1) This example illustrates the ability of the exemplary compounds to inhibit receptor tyrosine kinases, such as HER2 and/or EGFR. The following target cells were used for cellular kinaseassays: NIH3T3 clone C7 (Honegger et al., supra) engineered to over-express human EGF receptor; NIH3T3 cells engineered to over-express a chimeric receptor containing the EGFR extracellular domain and the HER2 intracellular kinase domain; the human mammary carcinoma line BT474 (ATCC HTB2) expressing HER2; and the human glioblastoma line U1242 that expresses PDGFR-β. Growth assays were carried out using human mammary epithelial SKBR3 (ATCC HTB30) cells, SKOV3 (ATCC HTB77) human ovarian cancer cell line, A431 cells, MCF7 human breast carcinoma cells, MCF7 cells overexpress the HER2 kinase (MCF7-HER2), NIH3T3 cells, and NIH3T3 cells overexpressing the HER2 kinase (3T3-HER2).
2. EGFR-HER2 Chimeric Receptor
HER2 kinase activity (EGFR-3T3) in whole cells was measured as described below:
The following protocol was used:
A. Coat ELISA plates (Corning, 96 well, Cat. #25805-96) with 05-101 antibody at 0.5 μg per well in PBS, 100 μl final volume/well, and store overnight at 4° C. Coated plates are good for up to 10 days when stored at 4° C.
B. On day of use, remove coating buffer and replace with 100 μl blocking buffer (5% Carnation Instant Non-Fat Dry Milk in PBS). Incubate the plate, shaking, at room temperature (about 23° C. to 25° C.) for 30 minutes. Just prior to use, remove blocking buffer and wash plate 4 times with TBST buffer.
A. An NIH3T3 cell line overexpressing a chimeric receptor containing the EGFR extracellular domain and extracellular HER2 kinase domain can be used for this assay.
A. Choose dishes having 80-90% confluence for the experiment. Trypsinize cells and stop reaction by adding 10% fetal bovine serum. Suspend cells in DMEM medium (10% CS DMEM medium) and centrifuge once at 1500 rpm, at room temperature for 5 minutes.
B. Resuspend cells in seeding medium (DMEM, 0.5% bovine serum), and count the cells using trypan blue. Viability above 90% is acceptable. Seed cells in DMEM medium (0.5% bovine serum) at a density of 10,000 cells per well, 100 μl per well, in a 96 well microtiter plate. Incubate seeded cells in 5% CO2 at 37° C. for about 40 hours.
A. Check seeded cells for contamination using an inverted microscope. Dilute drug stock (10 mg/ml in DMSO) 1:10 in DMEM medium, then transfer 5 μl to a test well for a final drug dilution of 1:200 and a final DMSO concentration of 1%. Control wells receive DMSO alone. Incubate in 5% CO2 at 37° C. for two hours.
A. Prepare EGF ligand: dilute stock EGF in DMEM so that upon transfer of 10 μl dilute EGF (1:12 dilution), 100 nM final concentration is attained.
B. Prepare fresh HNTG* sufficient for 100 μl per well; and place on ice.
C. After 120 minutes incubation with drug, add prepared EGF ligand to cells, 10 μl per well, to a final concentration of 100 nM. Control wells receive DMEM alone. Incubate, shaking, at room temperature, for 5 minutes.
D. Remove drug, EGF, and DMEM. Wash cells twice with PBS. Transfer HNTG* to cells, 100 μl per well. Place on ice for 5 minutes. Meanwhile, remove blocking buffer from other ELISA plate and wash with TBST as described above.
E. With a pipette tip securely fitted to a micropipettor, scrape cells from plate and homogenize cell material by repeatedly aspirating and dispensing the HNTG* lysis buffer. Transfer lysate to a coated, blocked, and washed ELISA plate. Incubate shaking at room temperature for one hour.
F. Remove lysate and wash 4 times with TBST. Transfer freshly diluted anti-Ptyr antibody to ELISA plate at 100 μl per well. Incubate shaking at room temperature for 30 minutes in the presence of the anti-Ptyr antiserum (1:3000 dilution in TBST).
G. Remove the anti-Ptyr antibody and wash 4 times with TBST. Transfer the freshly diluted TAGO anti-rabbit IgG antibody to the ELISA plate at 100 μl per well. […]

[2] = tested on: MCF7 cells overexpress the HER2 kinase (MCF7-HER2); assay: MCF-7/HER-2 SRB growth assay; format: cell-based, human; settings: Table VI, 0.5% FBS, four days
Description: as §1
MCF-7 cells are seeded at 2000 cells/ well in a 96-well flat bottom plate in normal growth media, which was 10% FBS/RPMI supplemented with 2 mM Glutamine. The plate of cells is incubated for about 24 hours at 37° C. after which it receives an equal volume of compound dilution per well making the total volume per well 200 μl. The compound is prepared at 2 times the desired highest final concentration and serially diluted in the normal growth media in a 96-well round bottom plate and then transferred to plate of cells. DMSO serves as the vector control up to 0.2% as final concentration. The cells are then incubated at 37° C. in a humidified 5% CO2 incubator.
Four days following dosing of compound, the media is discarded and 200 μl/well of ice-cold 10% TCA (Trichloroacetic Acid) is added to fix cells. After 60 minutes at 4° C., the TCA is discarded and the plate is rinsed 5 times with water. The plate is then air-dried and 100 μl/well of 0.4% SRB (Sulforhodamine B from Sigma) in 1% Acetic Acid is added to stain cells for 10 minutes at room temperature. The SRB is discarded and the plate is rinsed 5 times with 1% Acetic Acid. After the plate is completely dried, 100 μl/well of 10 mM Tris-base is added to solubilize the dye. After 5 to 10 minutes, the plate is read on a Dynatech ELISA Plate Reader at dual wavelengths at 570 nm and 630 nm.
8. MCF-7/HER-2 SRB Growth Assay
The protocol is basically the same as that above (for the MCF-7 Growth Assay) except that immediately before the compound is added, the normal growth media is removed and 0.5% FBS/RPMI supplemented with 2 mM Glutamine is added onto the cells. The compound is also prepared in this 0.5% serum media. The plate of cells is incubated for four days and developed as usual.

Row | pIC50 [1] | pIC50 ([2]; Homo sapiens, MCF7, 96 h) | Compound | pIC50 [2]
1 | < 4.00 | 6.70 | CC(C)(C)c1cc(/C=C(\C#N)C(N)=S)cc(C(C)(C)C)c1O [Compound M11] | –
2 | < 4.00 | – | N#C/C(=C\c1ccc(O)c(O)c1)C(=S)NCc1ccccc1 [Compound M13] | –
3 | < 4.00 | 5.22 | N#C/C(=C\c1ccc(O)c(O)c1)C(=O)Nc1cccc(C(F)(F)F)c1 [Compound M15] | –
4 | – | 6.22 | CC(C)(C)c1cc(/C=C(\C#N)C(=O)NCCCc2ccccc2)cc(C(C)(C)C)c1O [Compound M20, (E)-3-(3,5-di-t-Butyl-4-hydroxyphenyl)-2-[(3-phenyl-n-propyl)aminocarbonyl]acrylonitrile] | –
5 | < 4.00 | 5.70 | CC(C)c1cc(/C=C(\C#N)C(=O)NCCCc2ccccc2)cc(C(C)C)c1O [Compound M21, (E)-3-(3,5-Diisopropyl-4-hydroxyphenyl)-2-[(3-phenyl-n-propyl)aminocarbonyl]acrylonitrile] | –
6 | < 4.00 | 5.05 | CC(C)c1cc(C=C(C#N)C(N)=C(C#N)C#N)cc(C(C)C)c1O [Compound M22, (E)-2-(1-Amino-2,2-dicyanoethenyl-3-(3,5-diisopropyl-4-hydroxyphenyl)acrylonitrile)] | –
7 | < 4.00 | 6.00 | CC(C)c1cc(/C=C(\C#N)C(=S)NCCCc2ccccc2)cc(C(C)C)c1O [Compound M24, (E)-3-(3,5-Diisopropyl-4-hyrdroxyphenyl)-2-[(3-phenyl-n-propyl)aminothiocarbonyl]acrylonitrile] | –
8 | < 4.00 | – | CC(C)c1cc(/C=C(\C#N)S(=O)(=O)c2ccccn2)cc(C(C)C)c1O [Compound M26] | –
9 | < 4.00 | 5.22 | CC(C)c1cc(/C=C(\C#N)S(=O)(=O)CC#N)cc(C(C)C)c1O [Compound M27] | –
10 | < 4.00 | 5.70 | CC(C)c1cc(/C=C(\C#N)S(=O)(=O)/C(C#N)=C/c2cc(C(C)C)c(O)c(C(C)C)c2)cc(C(C)C)c1O [Compound M29] | –
11 | 4.74 | 5.70 | CC(C)c1cc(/C=C(\C#N)S(=O)(=O)c2ccccc2)cc(C(C)C)c1O [Compound M30] | –
12 | < 4.00 | – | Cc1cc(/C=C(\C#N)S(=O)(=O)c2ccccc2)cc(C)c1O [Compound M31] | –
13 | < 4.00 | < 4.30 | Cc1cc(/C=C(\C#N)S(=O)(=O)c2ccccn2)cc(C)c1O [Compound M32] | –
14 | < 4.00 | 7.30 | CC(C)(C)c1cc(/C=C(\C#N)S(=O)(=O)c2ccccc2)cc(C(C)(C)C)c1O [Compound M33, (E)-3-(3,5-di-t-Butyl-4-hydroxyphenyl)-2-(phenylsulfonyl)acrylonitrile] | –
15 | < 4.00 | 7.22 | CC(C)(C)c1cc(/C=C(\C#N)S(=O)(=O)c2ccccn2)cc(C(C)(C)C)c1O [Compound M34, (E)-3-(3,5-di-t-Butyl-4-hydroxyphenyl)-2-[(pyrid-2-yl)sulfonyl]acrylonitrile] | –
16 | < 4.00 | 7.05 | CC(C)(C)c1cc(/C=C(\C#N)C(=O)Nc2ccc(C(F)(F)F)cc2)cc(C(C)(C)C)c1O [Compound M35, (E)-3-(3,5-di-t-Butyl-4-hydroxyphenyl)-2-[(4-trifluoromethyl)phenylaminocarbonyl]acrylonitrile] | –
17 | < 4.00 | 5.70 | CC(C)(C)c1cc(/C=C(\C#N)S(=O)(=O)CC#N)cc(C(C)(C)C)c1O [Compound M36, (E)-3-(3,5-di-t-Butyl-4-hydroxyphenyl)-2-(cyanomethylsulfonyl)acrylonitrile] | –

Row | Compound | pIC50 [1] | pIC50 ([2]; Homo sapiens, MCF7, 96 h) | pIC50 [2]
18 | (E,E)-2-[[-Cyano-2-(3,5-diisopropyl-4-hydroxyphenyl)ethenyl]sulfonyl]-3-(3,5-di-t-butyl-4-hydroxyphenyl)acrylonitrile [Compound M37] | < 4.00 | – | 6.00
